Laboratory results: patent publication US4224442A, “7-Ureido acetamido substituted cephalosporin antibiotics” (Eli Lilly and Company, priority 1975, dated 1980)
In brackets after ≈: the same amount, converted by molar mass.

Tests used:
Escherichia coli [1] = assay: in vivo effective dose in experimental infections in mice; conditions: ip, E. coli infection in mice
Description: (§1) The in vivo effective dose […] in mg./kg. for representative antibiotics of the formula I has been determined in experimental infections in mice. Table II lists the ED50 dose vs. Streptococcus pyogenes and Escherichia coli infections. In the table, the antibiotics are identified with the R", R', and R1 -R3 terms of Formula I. |Test Compound ED50 (mg/kg × 2) i.p.

Streptococcus pyogenes = assay: as above; conditions: ip, S. pyogenes infection in mice
Description: as §1

V32 = assay: Gradient Plate in vitro method, MIC; format: cell-based, penicillin resistant Staphyloccus; conditions: V32, penicillin resistant Staphylococcus, read-out: Minimum Inhibitory Concentration
Description: (§2) The antibiotic activity of the cephalosporin compounds of the formula I is illustrated by the data presented in Table I for representative compounds. The values in the table are the minimum inhibitory concentrations (MIC) for the test compounds against the indicated microorganisms. The MIC values were obtained in the Gradient Plate in vitro method for determining antibiotic activity.
(§3) Minimum Inhibitory Concentration (mcg./ml.)
(§4) ^1 Test organisms V41, V32 and V84 are penicillin resistant
(§5) Staphyloccus, X400 is a methicillin resistant Staphylococcus.

V41 = assay: Gradient Plate in vitro method, MIC; format: cell-based, penicillin resistant Staphyloccus; conditions: V41, penicillin resistant Staphylococcus, read-out: Minimum Inhibitory Concentration
Description: as §2, §3, §4, §5

V84 = assay: Gradient Plate in vitro method, MIC; format: cell-based, penicillin resistant Staphyloccus; conditions: V84, penicillin resistant Staphylococcus, read-out: Minimum Inhibitory Concentration
Description: as §2, §3, §4, §5

Escherichia coli [2] = assay: Gradient Plate in vitro method, MIC; format: cell-based; conditions: read-out: Minimum Inhibitory Concentration
Description: (§6) The values in the table are the minimum inhibitory concentrations (MIC) for the test compounds against the indicated microorganisms. The MIC values were obtained in the Gradient Plate in vitro method for determining antibiotic activity.

Serratia marcescens = assay: Gradient Plate in vitro method, MIC; format: cell-based; conditions: read-out: Minimum Inhibitory Concentration
Description: as §6

X400 = assay: Gradient Plate in vitro method, MIC; format: cell-based; conditions: X400, methicillin resistant Staphylococcus, read-out: Minimum Inhibitory Concentration
Description: as §2, §3, §4, §5

Klebsiella pneumoniae = assay: Gradient Plate in vitro method, MIC; format: cell-based; conditions: read-out: Minimum Inhibitory Concentration
Description: as §2, §3

Shigella sp. = assay: Gradient Plate in vitro method, MIC; format: cell-based; conditions: read-out: Minimum Inhibitory Concentration
Description: as §2, §3

Pseudomonas aeruginosa = assay: Gradient Plate in vitro method, MIC; format: cell-based; conditions: read-out: Minimum Inhibitory Concentration
Description: as §2, §3

Salmonella heidelberg = assay: Gradient Plate in vitro method, MIC; format: cell-based; conditions: Salmonella enterica, read-out: Minimum Inhibitory Concentration
Description: as §2, §3

Aerobacter aerogenes = assay: Gradient Plate in vitro method, MIC; format: cell-based; conditions: Klebsiella aerogenes, read-out: Minimum Inhibitory Concentration
Description: as §2, §3

Staphylococcus aureus = assay: standard gear agar dilution method, MIC; format: cell-based
Description: In the standard gear agar dilution method, the MIC values for the above test compounds A through E against Staphylococcus aureus were as follows: A, 2; B, 1; C, 0.5; D, 2; and E, 0.5 mcg./m1.

[3] = Electrometric titration in 66 percent DMF; format: physicochemical; conditions: 66% dmf

SMILES | ED50 (Escherichia coli [1]) | ED50 (Streptococcus pyogenes) | MIC (V32) | MIC (V41) | MIC (V84) | MIC (Escherichia coli [2]) | MIC (Serratia marcescens) | MIC (X400) | MIC (Klebsiella pneumoniae) | MIC (Shigella sp.) | MIC (Pseudomonas aeruginosa) | MIC (Salmonella heidelberg) | MIC (Aerobacter aerogenes) | MIC (Staphylococcus aureus) | pKa ([3]; first of two titratable groups) | pKa ([3]; second of two titratable groups)
CNC(=O)NC(=O)NC(C(=O)NC1C(=O)N2C(C(=O)O)=C(CSc3nnc(C)s3)CSC12)c1ccc(O)cc1 (stereo not drawn) [Example 14, 7-[α-(3-methylcarbamoyl-1-ureido)-α-(4-hydroxyphenyl)acetamido]-3-(5-methyl-1,3,4-thiadiazole-2-ylthiomethyl)-3-cephem-4-carboxylic acid] | < 72 mg/kg | 0.7 mg/kg |  |  |  |  |  |  |  |  |  |  |  |  |  | 
CNC(=O)N(C)C(=O)NC(C(=O)NC1C(=O)N2C(C(=O)O)=C(CSc3nnnn3C)CSC12)c1ccc(O)cc1 (stereo not drawn) [Test Compound A, 7-[α-(3-methylcarbamoyl-3-methyl-1-ureido)-α-(4-hydroxyphenyl)acetamido]-3-(1-methyl-1H-tetrazole-5-ylthiomethyl)-3-cephem-4-carboxylic acid] | 72 mg/kg | 0.7 mg/kg | 4.8 µg/mL (≈ 8.11 µM) | 4 µg/mL (≈ 6.76 µM) | 0.6 µg/mL (≈ 1.01 µM) | 1 µg/mL (≈ 1.69 µM) | 8 µg/mL (≈ 13.5 µM) | > 20 µg/mL | 3.5 µg/mL (≈ 5.92 µM) | 1 µg/mL (≈ 1.69 µM) | 18 µg/mL (≈ 30.4 µM) | 1 µg/mL (≈ 1.69 µM) | 1 µg/mL (≈ 1.69 µM) | 2 µg/mL (≈ 3.38 µM) |  | 
CNC(=O)N(C)C(=O)NC(C(=O)NC1C(=O)N2C(C(=O)O)=C(CSc3nnc(C)s3)CSC12)c1ccc(O)cc1 (stereo not drawn) [Test Compound B, 7-[α-(3-methylcarbamoyl-3-methyl-1-ureido)-α-(4-hydroxyphenyl)acetamido]-3-(5-methyl-1,3,4-thiadiazole-2-ylthiomethyl)-3-cephem-4-carboxylic acid] |  |  | 10 µg/mL (≈ 16.5 µM) | 8 µg/mL (≈ 13.2 µM) | 0.6 µg/mL (≈ 0.987 µM) | 4 µg/mL (≈ 6.58 µM) | 19 µg/mL (≈ 31.3 µM) | > 20 µg/mL | 4 µg/mL (≈ 6.58 µM) | 3 µg/mL (≈ 4.94 µM) | 28 µg/mL (≈ 46.1 µM) | 2 µg/mL (≈ 3.29 µM) | 4 µg/mL (≈ 6.58 µM) | 1 µg/mL (≈ 1.65 µM) | 4.8 | 12.2
CNC(=O)N(C)C(=O)NC(C(=O)NC1C(=O)N2C(C(=O)O)=C(COC(C)=O)CSC12)c1ccccc1 (stereo not drawn) [Test Compound C, 7-[α-(3-methylcarbamoyl-3-methyl-1-ureido)-α-phenylacetamido]-3-acetoxymethyl-3-cephem-4-carboxylic acid] | < 7.2 mg/kg | < 7.2 mg/kg | 1 µg/mL (≈ 1.92 µM) | 1 µg/mL (≈ 1.92 µM) | 0.5 µg/mL (≈ 0.962 µM) | 11 µg/mL (≈ 21.2 µM) | 80 µg/mL (≈ 154 µM) | > 20 µg/mL | 14 µg/mL (≈ 26.9 µM) | 7 µg/mL (≈ 13.5 µM) | 80 µg/mL (≈ 154 µM) | 13 µg/mL (≈ 25 µM) | 14 µg/mL (≈ 26.9 µM) | 0.5 µg/mL (≈ 0.962 µM) |  | 
Cn1nnnc1SCC1=C(C(=O)O)N2C(=O)C(NC(=O)C(NC(=O)N3CCNC3=O)c3ccccc3)[C@H]2SC1 (stereo partly drawn) [Test Compound D, 7-[α-(imidazolidine-2-one-1-ylcarbonylamino)-α-phenylacetamido]-3-(1-methyl-1H-tetrazole-5-ylthiomethyl)-3-cephem-4-carboxylic acid] |  |  | 7 µg/mL (≈ 12.2 µM) | 6 µg/mL (≈ 10.5 µM) | 0.9 µg/mL (≈ 1.57 µM) | 12 µg/mL (≈ 20.9 µM) | 70 µg/mL (≈ 122 µM) | > 20 µg/mL | 7 µg/mL (≈ 12.2 µM) | 7 µg/mL (≈ 12.2 µM) | 90 µg/mL (≈ 157 µM) | 6 µg/mL (≈ 10.5 µM) | 12 µg/mL (≈ 20.9 µM) | 2 µg/mL (≈ 3.49 µM) |  | 
CC(=O)OCC1=C(C(=O)O)N2C(=O)C(NC(=O)C(NC(=O)N3CCNC3=O)c3ccccc3)[C@H]2SC1 (stereo partly drawn) [Test Compound E, 7-[α-(imidazolidine-2-one-1-ylcarbonylamino)-α-phenylacetamido]-3-acetoxymethyl-3-cephem-4-carboxylic acid] |  |  | 5 µg/mL (≈ 9.66 µM) | 2 µg/mL (≈ 3.86 µM) | 0.4 µg/mL (≈ 0.773 µM) | 18 µg/mL (≈ 34.8 µM) | 42 µg/mL (≈ 81.2 µM) | > 20 µg/mL | 12 µg/mL (≈ 23.2 µM) | 10 µg/mL (≈ 19.3 µM) | 24 µg/mL (≈ 46.4 µM) | 11 µg/mL (≈ 21.3 µM) | 10 µg/mL (≈ 19.3 µM) | 0.5 µg/mL (≈ 0.966 µM) |  | 
CNC(=O)N(C)C(=O)NC(C(=O)NC1C(=O)N2C(C(=O)O)=C(CSc3nnnn3C)CSC12)c1ccccc1 (stereo not drawn) [Test Compound F, 7-[α-(3-methylcarbamoyl-3-methyl-1-ureido)-α-phenylacetamido]-3-(1-methyl-1H-tetrazole-5-ylthiomethyl)-3-cephem-4-carboxylic acid] |  |  | 5 µg/mL (≈ 8.69 µM) | 5 µg/mL (≈ 8.69 µM) | 4 µg/mL (≈ 6.95 µM) | 4 µg/mL (≈ 6.95 µM) | 22 µg/mL (≈ 38.2 µM) | > 20 µg/mL | 1 µg/mL (≈ 1.74 µM) | 3 µg/mL (≈ 5.21 µM) | 22 µg/mL (≈ 38.2 µM) | 3 µg/mL (≈ 5.21 µM) | 3 µg/mL (≈ 5.21 µM) |  |  | 
Cn1nnnc1SCC1=C(C(=O)O)N2C(=O)C(NC(=O)C(NC(=O)NC(N)=O)c3ccccc3)C2SC1 (stereo not shown) [Test Compound H] | < 72 mg/kg | 0.7 mg/kg | 4 µg/mL (≈ 7.3 µM) | 2.5 µg/mL (≈ 4.57 µM) | 1 µg/mL (≈ 1.83 µM) | 16 µg/mL (≈ 29.2 µM) | > 200 µg/mL | > 20 µg/mL | 35 µg/mL (≈ 63.9 µM) | 9.5 µg/mL (≈ 17.3 µM) | 60 µg/mL (≈ 110 µM) | 12 µg/mL (≈ 21.9 µM) | 15 µg/mL (≈ 27.4 µM) |  |  | 
CNC(=O)NC(=O)NC(C(=O)NC1C(=O)N2C(C(=O)O)=C(CSc3nnnn3C)CSC12)c1cccs1 (stereo not drawn) [Test Compound I, 7-[α-(3-methylcarbamoyl-1-ureido)-α-(2-thienyl)-acetamido]-3-(1-methyl-1H-tetrazole-5-ylthiomethyl)-3-cephem-4-carboxylic acid] | < 72 mg/kg | < 7.2 mg/kg | 0.7 µg/mL (≈ 1.23 µM) | 0.6 µg/mL (≈ 1.06 µM) | 0.6 µg/mL (≈ 1.06 µM) | 5.5 µg/mL (≈ 9.69 µM) | 35 µg/mL (≈ 61.7 µM) | 13 µg/mL (≈ 22.9 µM) | 6.8 µg/mL (≈ 12 µM) | 3 µg/mL (≈ 5.29 µM) | 16 µg/mL (≈ 28.2 µM) | 4.5 µg/mL (≈ 7.93 µM) | 4.3 µg/mL (≈ 7.58 µM) |  |  | 
CNC(=O)NC(=O)NC(C(=O)NC1C(=O)N2C(C(=O)O)=C(CSc3nnnn3C)CSC12)c1ccccc1 (stereo not drawn) [Test Compound J, 7-[α-(3-methylcarbamoyl-1-ureido)-α-phenylacetamido)-3-(1-methyl-1H-tetrazole-5-ylthiomethyl)-3-cephem-4-carboxylic acid] | 72 mg/kg | 0.7 mg/kg | 3 µg/mL (≈ 5.34 µM) | 2 µg/mL (≈ 3.56 µM) | 5 µg/mL (≈ 8.9 µM) | 7.5 µg/mL (≈ 13.4 µM) | 130 µg/mL (≈ 231 µM) | > 20 µg/mL | 10 µg/mL (≈ 17.8 µM) | 4 µg/mL (≈ 7.12 µM) | 22.3 µg/mL (≈ 39.7 µM) | 4.3 µg/mL (≈ 7.66 µM) | 4.3 µg/mL (≈ 7.66 µM) |  |  | 
CNC(=O)N(C)C(=O)NC(C(=O)NC1C(=O)N2C(C(=O)O)=C(CSc3nnnn3C)CSC12)c1cccs1 (stereo not drawn) [Test Compound K, 7-[α-(3-methylcarbamoyl-3-methyl-1-ureido)-α-(2-thienyl)acetamido]-3-(1-methyl-1H-tetrazole-5-ylthiomethyl)-3-cephem-4-carboxylic acid] |  |  | 3 µg/mL (≈ 5.16 µM) | 3 µg/mL (≈ 5.16 µM) | 3 µg/mL (≈ 5.16 µM) | 2.5 µg/mL (≈ 4.3 µM) | 19.5 µg/mL (≈ 33.5 µM) | > 20 µg/mL | 0.9 µg/mL (≈ 1.55 µM) | 1 µg/mL (≈ 1.72 µM) | 21.5 µg/mL (≈ 37 µM) | 10 µg/mL (≈ 17.2 µM) | 1 µg/mL (≈ 1.72 µM) |  |  | 
CNC(=O)NC(=O)NC(C(=O)NC1C(=O)N2C(C(=O)O)=C(CSc3nnc(C)s3)CSC12)c1ccc(O)cc1 (stereo not drawn) [Test Compound L, Sodium 7-[α-(3-methylcarbamoyl-1-ureido)-α-(4-hydroxyphenyl)acetamido]-3-(5-methyl-1,3,4-thiadiazole-2-ylthiomethyl)3-cephem-4-carboxylate] |  |  | 7.5 µg/mL | 6.5 µg/mL | 0.6 µg/mL | 7.5 µg/mL | > 200 µg/mL | > 20 µg/mL | 16 µg/mL | 5.5 µg/mL | 19.5 µg/mL | 6.5 µg/mL | 15.5 µg/mL |  |  | 
Cn1nnnc1SCC1=C(C(=O)O)N2C(=O)C(NC(=O)C(NC(=O)NC(=O)Nc3ccccc3)c3ccccc3)C2SC1 (stereo not drawn) [Test Compound M, 7-[α-(3-phenylcarbamoyl-1-ureido)-α-phenylacetamido]-3-(1-methyl-1H-tetrazole-5-ylthiomethyl)-3-cephem-4-carboxylic acid] |  |  | 0.5 µg/mL (≈ 0.802 µM) | 0.6 µg/mL (≈ 0.962 µM) | 0.5 µg/mL (≈ 0.802 µM) | 10 µg/mL (≈ 16 µM) | 24 µg/mL (≈ 38.5 µM) | 10 µg/mL (≈ 16 µM) | 0.6 µg/mL (≈ 0.962 µM) | 4 µg/mL (≈ 6.41 µM) | 19.5 µg/mL (≈ 31.3 µM) | 7.8 µg/mL (≈ 12.5 µM) | 15.5 µg/mL (≈ 24.9 µM) |  |  | 
